Measurements taken from the supplement of paper PMC10883282.
± gives the standard deviation of the averaged measurements.

System: SW684
Assay: relative viability vs DMSO control (72 h) (fraction); higher = more viable cells
Procedure, shortened: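 A 5 µM positive control and 0.1% DMSO vehicle ran alongside sarcoma cell lines seeded in 384-well plates to reach 80–90% confluence. Serially diluted compound, 2.5 µl from source plates of 10 mM to 0.0002 mM, was added after 24 h, and the plates were held 72 h at 37 °C, 5% CO2. Relative viability was worked out from ATPLite readings as percent growth averaged over up to triplicate wells. The values were rescaled so that 1 is full and 0 is none.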

Row | SMILES | relative viability (0.00017 µM) | relative viability (0.00051 µM) | relative viability (0.00152 µM) | relative viability (0.00457 µM) | relative viability (0.01372 µM) | relative viability (0.04115 µM) | relative viability (0.1235 µM) | relative viability (0.3704 µM) | relative viability (1.111 µM) | relative viability (3.333 µM) | relative viability (10 µM)
1 | Cc1ccc(F)c(NC(=O)Nc2ccc(-c3cccc4[nH]nc(N)c34)cc2)c1 [Linifanib] | 1.11 ± 0.014 | 1.14 ± 0.02 | 1.13 ± 0.039 | 1.18 ± 0.03 | 1.17 ± 0.023 | 1.18 ± 0.04 | 1.15 ± 0.027 | 1.139 ± 0.011 | 1.16 ± 0.045 | 1.15 ± 0.049 | 1.12 ± 0.041
2 | CNC(=O)c1ccc(-c2cnc3ncc(Cc4ccc5ncccc5c4)n3n2)cc1F [Capmatinib] | 1.19 ± 0.017 | 1.2 ± 0.043 | 1.19 ± 0.047 | 1.15 ± 0.056 | 1.12 ± 0.046 | 1.127 ± 0.0092 | 1.13 ± 0.029 | 1.14 ± 0.085 | 1.17 ± 0.06 | 1.13 ± 0.052 | 1.05 ± 0.045
3 | CN1CCC(COc2cnc(-c3cccc(Cn4nc(-c5cccc(C#N)c5)ccc4=O)c3)nc2)CC1 [Tepotinib] | 1.11 ± 0.034 | 1.21 ± 0.032 | 1.14 ± 0.055 | 1.16 ± 0.039 | 1.16 ± 0.043 | 1.15 ± 0.065 | 1.18 ± 0.067 | 1.16 ± 0.096 | 1.14 ± 0.08 | 1.1 ± 0.044 | 0.865 ± 0.047
4 | N#CC[C@H](C1CCCC1)n1cc(-c2ncnc3[nH]ccc23)cn1 [Ruxolitinib] | 0.985 ± 0.022 | 1.062 ± 0.005 | 1.03 ± 0.017 | 1.04 ± 0.072 | 0.991 ± 0.028 | 0.976 ± 0.035 | 0.978 ± 0.023 | 0.9518 ± 0.0033 | 0.912 ± 0.032 | 0.915 ± 0.036 | 0.777 ± 0.012
5 | CC(C)(C)c1cc(NC(=O)Nc2ccc(-c3cn4c(n3)sc3cc(OCCN5CCOCC5)ccc34)cc2)no1 [Quizartinib] | 1.11 ± 0.14 | 1.209 ± 0.012 | 1.21 ± 0.095 | 1.23 ± 0.019 | 1.2 ± 0.052 | 1.14 ± 0.012 | 1.21 ± 0.03 | 1.23 ± 0.061 | 1.14 ± 0.078 | 1.03 ± 0.038 | 0.734 ± 0.077
6 | COc1c(OCCCN2CCOCC2)ccc2c1N=C(NC(=O)c1cnc(N)nc1)N1CCN=C21 [Copanlisib] | 1.09 ± 0.061 | 1.12 ± 0.062 | 1 ± 0.026 | 0.7483 ± 0.0065 | 0.631 ± 0.025 | 0.516 ± 0.018 | 0.469 ± 0.011 | 0.435 ± 0.018 | 0.425 ± 0.017 | 0.403 ± 0.0053 | 0.368 ± 0.002
7 | Cc1ccc(NC(=O)c2ccc(CN3CCN(C)CC3)cc2)cc1Nc1nc(-c2cccnc2)cs1 [Masitinib] | 1.04 ± 0.017 | 1.07 ± 0.038 | 1.11 ± 0.029 | 1.08 ± 0.027 | 1.07 ± 0.034 | 1.1 ± 0.025 | 1.06 ± 0.043 | 1 ± 0.025 | 0.851 ± 0.014 | 0.508 ± 0.066 | 0.0554 ± 0.0057
8 | Cn1cc(-c2cc3c(N4CCN(c5ncc([C@@](C)(N)c6ccc(F)cc6)cn5)CC4)ncnn3c2)cn1 [Avapritinib] | 1.058 ± 0.0041 | 1.04 ± 0.013 | 1.07 ± 0.036 | 1.05 ± 0.031 | 1.05 ± 0.035 | 1.01 ± 0.017 | 1.09 ± 0.064 | 1.06 ± 0.034 | 1.02 ± 0.021 | 1.03 ± 0.03 | 0.95 ± 0.038
9 | O=C(Cc1ccc(-c2ccc(OCCN3CCOCC3)cc2)cn1)NCc1ccccc1 [KX2-391] | 1.13 ± 0.039 | 1.15 ± 0.03 | 1.18 ± 0.014 | 1.182 ± 0.011 | 1.15 ± 0.025 | 1.04 ± 0.073 | 0.77 ± 0.02 | 0.696 ± 0.027 | 0.751 ± 0.024 | 0.762 ± 0.044 | 0.734 ± 0.033
